Structures are written as SMILES.

This is an account of results in US9765060B2 (Gilead Sciences, Inc., priority 2014, dated 2017).

The first assay deals with PI3K isoform δ (Homo sapiens (Human), UniProt O00329). In words: TR-FRET assay of enzymatic activity of class I PI3K isoforms. The settings on record: IC50 (nM) for PI3K isoform δ (Table 3), TR-FRET; 2× Km ATP, 2 μM PIP2; incubated for 30 minutes at 25° C.
Sequence of PI3K isoform δ (O00329 whole entry, canonical isoform): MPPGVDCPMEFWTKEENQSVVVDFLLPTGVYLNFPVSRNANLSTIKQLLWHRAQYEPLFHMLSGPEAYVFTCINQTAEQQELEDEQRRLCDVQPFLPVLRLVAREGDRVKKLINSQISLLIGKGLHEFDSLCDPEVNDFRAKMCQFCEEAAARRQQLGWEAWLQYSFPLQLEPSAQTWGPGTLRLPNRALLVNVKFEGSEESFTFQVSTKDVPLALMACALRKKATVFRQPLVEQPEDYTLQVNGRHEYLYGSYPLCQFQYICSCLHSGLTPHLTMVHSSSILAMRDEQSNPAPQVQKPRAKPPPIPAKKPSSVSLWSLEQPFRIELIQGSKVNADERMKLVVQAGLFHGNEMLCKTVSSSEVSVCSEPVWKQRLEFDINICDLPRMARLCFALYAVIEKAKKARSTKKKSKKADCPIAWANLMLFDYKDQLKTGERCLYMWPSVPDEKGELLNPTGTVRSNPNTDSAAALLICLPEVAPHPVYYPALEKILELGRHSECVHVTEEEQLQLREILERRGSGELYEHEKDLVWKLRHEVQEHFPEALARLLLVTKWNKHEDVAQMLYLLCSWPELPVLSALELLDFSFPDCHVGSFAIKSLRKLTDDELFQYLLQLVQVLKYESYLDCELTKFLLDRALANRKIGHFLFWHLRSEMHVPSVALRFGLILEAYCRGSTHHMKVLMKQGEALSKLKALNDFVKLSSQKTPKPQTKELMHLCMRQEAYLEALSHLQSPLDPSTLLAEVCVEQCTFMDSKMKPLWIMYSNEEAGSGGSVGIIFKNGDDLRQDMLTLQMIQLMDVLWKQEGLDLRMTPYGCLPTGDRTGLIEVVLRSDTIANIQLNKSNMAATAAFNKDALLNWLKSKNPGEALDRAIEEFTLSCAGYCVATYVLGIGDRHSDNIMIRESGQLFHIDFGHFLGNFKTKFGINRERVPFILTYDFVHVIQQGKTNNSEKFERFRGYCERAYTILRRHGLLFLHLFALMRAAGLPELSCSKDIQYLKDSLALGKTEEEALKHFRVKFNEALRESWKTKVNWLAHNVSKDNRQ
Sequence of PI3K isoform δ (P27986 whole entry partner, canonical isoform): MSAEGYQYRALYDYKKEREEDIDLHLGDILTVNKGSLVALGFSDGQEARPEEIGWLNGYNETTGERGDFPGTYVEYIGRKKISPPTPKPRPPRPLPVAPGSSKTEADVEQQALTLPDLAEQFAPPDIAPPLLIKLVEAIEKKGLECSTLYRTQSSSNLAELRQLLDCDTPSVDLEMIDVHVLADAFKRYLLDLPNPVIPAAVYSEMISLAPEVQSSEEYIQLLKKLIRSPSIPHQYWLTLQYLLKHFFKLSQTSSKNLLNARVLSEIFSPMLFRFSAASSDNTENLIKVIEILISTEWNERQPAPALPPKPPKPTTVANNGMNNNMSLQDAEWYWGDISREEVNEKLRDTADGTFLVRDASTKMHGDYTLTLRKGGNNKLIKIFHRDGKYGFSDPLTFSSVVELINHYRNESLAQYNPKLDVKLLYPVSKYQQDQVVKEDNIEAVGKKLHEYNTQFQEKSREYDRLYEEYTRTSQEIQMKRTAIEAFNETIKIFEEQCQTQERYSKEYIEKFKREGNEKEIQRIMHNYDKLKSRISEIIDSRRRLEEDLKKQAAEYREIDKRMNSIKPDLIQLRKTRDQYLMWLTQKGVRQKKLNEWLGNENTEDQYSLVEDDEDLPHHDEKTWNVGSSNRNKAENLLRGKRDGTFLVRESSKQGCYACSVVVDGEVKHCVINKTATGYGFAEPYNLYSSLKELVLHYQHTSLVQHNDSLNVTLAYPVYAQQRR
Source text: TR-FRET monitored the formation of 3,4,5-inositol triphosphate molecule that competed with fluorescently labeled PIP3 for binding to the GRP-1 pleckstrin homology domain protein. […] Class I PI3K isoforms were expressed and purified as heterodimeric recombinant proteins. All assay reagents and buffers for the TR-FRET assay were purchased from Millipore.
With `C[C@H](Nc1nc(N)nc(Cl)c1C#N)c1nc2cccc(F)c2c(=O)n1-c1cc(F)cc(F)c1` [Compound 102, (S)-2-amino-4-chloro-6-((1-(3-(3,5-difluorophenyl)-5-chloro-4-oxo-3-phenyl-3,4-dihydroquinazolin-2-yl)ethyl)amino)pyrimidine-5-carbonitrile], inhibition was half-maximal at 30 nM (IC50).

The assay is the same for the next values; noted with them: read-out: IC50 (nM) for PI3K isoform δ (Table 3); TR-FRET; 2× Km ATP, 2 μM PIP2; incubated for 30 minutes at 25° C.
With `C[C@H](Nc1nc(N)nc(N)c1C#N)c1nc2cccc(SCCO)c2c(=O)n1-c1cccc(F)c1` [Compound 79, (S)-2,4-diamino-6-((1-(3-(3-fluorophenyl)-5-((2-hydroxyethyl)thio)-4-oxo-3,4-dihydroquinazolin-2-yl)ethyl)amino)pyrimidine-5-carbonitrile], the IC50 was determined as 51 nM.

Regarding `C[C@H](Nc1nc(N)nc(N)c1C#N)c1nc2cccc(S(=O)(=O)C3CCCC3)c2c(=O)n1-c1cccc(F)c1` [Compound 80, (S)-2,4-diamino-6-((1-(5-(cyclopentylsulfonyl)-3-(3-fluorophenyl)-4-oxo-3,4-dihydroquinazolin-2-yl)ethyl)amino)pyrimidine-5-carbonitrile], the IC50 came out at 61 nM.

`Cc1ccccc1S(=O)(=O)c1cccc2nc([C@H](C)Nc3nc(N)nc(N)c3C#N)n(-c3cccc(F)c3)c(=O)c12` [Compound 81, (S)-2,4-diamino-6-((1-(3-(3-fluorophenyl)-4-oxo-5-(o-tolylsulfonyl)-3,4-dihydroquinazolin-2-yl)ethyl)amino)pyrimidine-5-carbonitrile]: the 50% inhibitory concentration (IC50) is 6 nM.

For `C[C@H](Nc1nc(N)nc(N)c1C#N)c1nc2cccc(S(=O)(=O)CCN3CCCC3)c2c(=O)n1-c1cccc(F)c1` [Compound 82, (S)-2,4-diamino-6-((1-(3-(3-fluorophenyl)-4-oxo-5-((2-(pyrrolidin-1-yl)ethyl)sulfonyl)-3,4-dihydroquinazolin-2-yl)ethyl)amino)pyrimidine-5-carbonitrile], the IC50 was 2 nM.

As to `N#Cc1c(N)nc(N)nc1N1CCC[C@H]1c1nc2cccc(Cl)c2c(=O)n1-c1cc(F)cc(F)c1` [Compound 83, (S)-2,4-diamino-6-(2-(5-chloro-3-(3,5-difluorophenyl)-4-oxo-3,4-dihydroquinazolin-2-yl)pyrrolidin-1-yl)pyrimidine-5-carbonitrile], the IC50 was found to be 2 nM.

`Cc1ccc(Cl)c2c(=O)n(-c3cc(F)cc(F)c3)c([C@@H]3CCCN3c3nc(N)nc(N)c3C#N)nc12` [Compound 84, (S)-2,4-diamino-6-(2-(5-chloro-3-(3,5-difluorophenyl)-8-methyl-4-oxo-3,4-dihydroquinazolin-2-yl)pyrrolidin-1-yl)pyrimidine-5-carbonitrile]: the IC50 was 4 nM.

Consider `N#Cc1c(N)nc(N)nc1N1CCC[C@H]1c1nc2c(Cl)cccc2c(=O)n1-c1cc(F)cc(F)c1` [Compound 85, (S)-2,4-diamino-6-(2-(8-chloro-3-(3,5-difluorophenyl)-4-oxo-3,4-dihydroquinazolin-2-yl)pyrrolidin-1-yl)pyrimidine-5-carbonitrile], for which the IC50 is 10 nM.

For the molecule `Cc1cccc2c(=O)n(-c3cc(F)cc(F)c3)c([C@@H]3CCCN3c3nc(N)nc(N)c3C#N)nc12` [Compound 86, (S)-2,4-diamino-6-(2-(3-(3,5-difluorophenyl)-8-methyl-4-oxo-3,4-dihydroquinazolin-2-yl)pyrrolidin-1-yl)pyrimidine-5-carbonitrile], the half-maximal inhibitory concentration (IC50) turned out to be 12 nM.

Take `N#Cc1c(N)nc(N)nc1N1CCC[C@H]1c1nc2cccc(F)c2c(=O)n1-c1cc(F)cc(F)c1` [Compound 87, (S)-2,4-diamino-6-(2-(3-(3,5-difluorophenyl)-5-fluoro-4-oxo-3,4-dihydroquinazolin-2-yl)pyrrolidin-1-yl)pyrimidine-5-carbonitrile]: the 50% inhibitory concentration (IC50) amounted to 23 nM.

Consider `N#Cc1cc(F)cc(-n2c([C@@H]3CCCN3c3nc(N)nc(N)c3C#N)nc3cccc(Cl)c3c2=O)c1` [Compound 88, (S)-2,4-diamino-6-(2-(5-chloro-3-(3-cyano-5-fluorophenyl)-4-oxo-3,4-dihydroquinazolin-2-yl)pyrrolidin-1-yl)pyrimidine-5-carbonitrile], for which the IC50 stood at 17 nM.

Consider `N#Cc1c(N)nc(N)nc1N1CCC[C@H]1c1nc2cccc(C#N)c2c(=O)n1-c1ccccc1` [Compound 89, (S)-2-(1-(2,6-diamino-5-cyanopyrimidin-4-yl)pyrrolidin-2-yl)-4-oxo-3-phenyl-3,4-dihydroquinazoline-5-carbonitrile], for which the IC50 amounted to 2 nM.

As for `N#Cc1c(N)nc(N)nc1N1CCC[C@H]1c1nc2c(C#N)cccc2c(=O)n1-c1cccc(C(F)F)c1` [Compound 90, (S)-2-(1-(2,6-diamino-5-cyanopyrimidin-4-yl)pyrrolidin-2-yl)-3-(3-(difluoromethyl)phenyl)-4-oxo-3,4-dihydroquinazoline-8-carbonitrile], the half-inhibitory concentration (IC50) stood at 5 nM.

Regarding `N#Cc1c(N)nc(N)nc1N1CCC[C@H]1c1nc2c(Cl)ccc(Cl)c2c(=O)n1-c1cccc(S(N)(=O)=O)c1` [Compound 91, (S)-3-(5,8-dichloro-2-(1-(2,6-diamino-5-cyanopyrimidin-4-yl)pyrrolidin-2-yl)-4-oxoquinazolin-3(4H)-yl)benzenesulfonamide], the concentration for half-maximal inhibition (IC50) is 17 nM.

For the molecule `C[C@H](Nc1nc(N)nc(N)c1C#N)c1nc2cccc(C3=CCNCC3)c2c(=O)n1-c1ccccc1` [Compound 93, (S)-2,4-diamino-6-((1-(4-oxo-3-phenyl-5-(1,2,3,6-tetrahydropyridin-4-yl)-3,4-dihydroquinazolin-2-yl)ethyl)amino)pyrimidine-5-carbonitrile], the concentration for half-maximal inhibition (IC50) is 17 nM.

As for `C[C@@H]1C[C@@H](c2nc3cccc(Cl)c3c(=O)n2-c2ccccc2)N(c2nc(N)nc(N)c2C#N)C1` [Compound 94, 2,4-diamino-6-((2S,4R)-2-(5-chloro-4-oxo-3-phenyl-3,4-dihydroquinazolin-2-yl)-4-methylpyrrolidin-1-yl)pyrimidine-5-carbonitrile], the IC50 was 2 nM.

As for `N#Cc1c(N)nc(N)nc1N1C[C@H](F)C[C@H]1c1nc2cccc(Cl)c2c(=O)n1-c1cc(F)cc(F)c1` [Compound 95, 2,4-diamino-6-((2S,4R)-2-(5-chloro-3-(3,5-difluorophenyl)-4-oxo-3,4-dihydroquinazolin-2-yl)-4-fluoropyrrolidin-1-yl)pyrimidine-5-carbonitrile], the IC50 was 160 nM.

`Cc1nc(N)nc(N[C@@H](C)c2nc3cccc(Cl)c3c(=O)n2-c2ccccc2)c1C#N` [Compound 96, (S)-2-amino-4-((1-(5-chloro-4-oxo-3-phenyl-3,4-dihydroquinazolin-2-yl)ethyl)amino)-6-methylpyrimidine-5-carbonitrile]: the IC50 was 0.1 nM.

With `Cc1nc(N)nc(N[C@@H](C)c2nc3cccc(Cl)c3c(=O)n2-c2ccccc2)c1I` [Compound 97, (S)-2-(1-((2-amino-5-iodo-6-methylpyrimidin-4-yl)amino)ethyl)-5-chloro-3-phenylquinazolin-4(3H)-one], the IC50 was determined as 0.6 nM.

In the case of `Cc1nc(N)c(C#N)c(N[C@@H](C)c2nc3cccc(Cl)c3c(=O)n2-c2ccccc2)n1` [Compound 98, (S)-4-amino-6-((1-(5-chloro-4-oxo-3-phenyl-3,4-dihydroquinazolin-2-yl)ethyl)amino)-2-methylpyrimidine-5-carbonitrile], the half-inhibitory concentration (IC50) worked out at 10 nM.

In the case of `Nc1nc(N)c(Cl)c(N2CCOC[C@H]2c2nc3cccc(Cl)c3c(=O)n2-c2ccccc2)n1` [Compound 100, (R)-5-chloro-2-(4-(2,6-diamino-5-chloropyrimidin-4-yl)morpholin-3-yl)-3-phenylquinazolin-4(3H)-one], the IC50 is 8400 nM.

In the case of `C[C@H](Nc1nc(N)nc(Cl)c1C#N)c1nc2cccc(Cl)c2c(=O)n1-c1ccccc1` [Compound 101, (S)-2-amino-4-chloro-6-((1-(5-chloro-4-oxo-3-phenyl-3,4-dihydroquinazolin-2-yl)ethyl)amino)pyrimidine-5-carbonitrile], the half-inhibitory concentration (IC50) is 1 nM.

As to `C[C@H](Nc1nc(Cl)nc(N)c1C#N)c1nc2cccc(Cl)c2c(=O)n1-c1ccccc1` [Compound 104, (S)-4-amino-2-chloro-6-((1-(5-chloro-4-oxo-3-phenyl-3,4-dihydroquinazolin-2-yl)ethyl)amino)pyrimidine-5-carbonitrile], the half-inhibitory concentration (IC50) came out at 4 nM.

As for `C[C@H](Nc1nc(N)nc(Cl)c1C#N)c1nc2cccc(Cl)c2c(=O)n1-c1cc(F)cc(F)c1` [Compound 105, (S)-2-amino-4-chloro-6-((1-(5-chloro-3-(3,5-difluorophenyl)-4-oxo-3,4-dihydroquinazolin-2-yl)ethyl)amino)pyrimidine-5-carbonitrile], the IC50 was determined as 2 nM.

In the case of `C[C@H](Nc1nc(F)nc(N)c1C#N)c1nc2cccc(Cl)c2c(=O)n1-c1ccccc1` [Compound 106, (S)-4-amino-6-((1-(5-chloro-4-oxo-3-phenyl-3,4-dihydroquinazolin-2-yl)ethyl)amino)-2-fluoropyrimidine-5-carbonitrile], the half-maximal inhibitory concentration (IC50) is 0.8 nM.

In the case of `N#Cc1c(N)nc(N)nc1N1C[C@H](NC(=O)C(F)F)C[C@H]1c1nc2cccc(Cl)c2c(=O)n1-c1ccccc1` [Compound 107, N-((3R,5S)-5-(5-chloro-4-oxo-3-phenyl-3,4-dihydroquinazolin-2-yl)-1-(2,6-diamino-5-cyanopyrimidin-4-yl)pyrrolidin-3-yl)-2,2-difluoroacetamide], the IC50 was 0.4 nM.

Take `N#Cc1c(N)nc(N)nc1N1C[C@@H](NC(=O)C(F)(F)F)C[C@H]1c1nc2cccc(Cl)c2c(=O)n1-c1ccccc1` [Compound 108, N-((3S,5S)-5-(5-chloro-4-oxo-3-phenyl-3,4-dihydroquinazolin-2-yl)-1-(2,6-diamino-5-cyanopyrimidin-4-yl)pyrrolidin-3-yl)-2,2,2-trifluoroacetamide]: the IC50 turned out to be 2 nM.

With `N#Cc1c(N)nc(N)nc1N1C[C@H](NC(=O)C(F)F)C[C@H]1c1nc2cccc(Cl)c2c(=O)n1-c1cc(F)cc(F)c1` [Compound 109, N-((3R,5S)-5-(5-chloro-3-(3,5-difluorophenyl)-4-oxo-3,4-dihydroquinazolin-2-yl)-1-(2,6-diamino-5-cyanopyrimidin-4-yl)pyrrolidin-3-yl)-2,2-difluoroacetamide], the 50% inhibitory concentration (IC50) amounted to 0.7 nM.

The term IC50 denotes the concentration that gives 50% inhibition.
